Experimental data: US5739284A, “Compositions corresponding to a high-affinity glutamate transporter molecule and methods for making and using same” (Brigham and Women's Hospital, Inc., priority 1995, dated 1998)
Values belong to the compound of their own block, whether it stands above or below them.

How the values were obtained:
[1] = biological target: T1, Human High Affinity Glutamate Transporter HEAAC1 (Homo sapiens, UniProt P43005); assay: substrate-evoked currents in oocytes expressing human carrier
T1 sequence (P43005 1-524 V96L/K170N/P172A/L260H): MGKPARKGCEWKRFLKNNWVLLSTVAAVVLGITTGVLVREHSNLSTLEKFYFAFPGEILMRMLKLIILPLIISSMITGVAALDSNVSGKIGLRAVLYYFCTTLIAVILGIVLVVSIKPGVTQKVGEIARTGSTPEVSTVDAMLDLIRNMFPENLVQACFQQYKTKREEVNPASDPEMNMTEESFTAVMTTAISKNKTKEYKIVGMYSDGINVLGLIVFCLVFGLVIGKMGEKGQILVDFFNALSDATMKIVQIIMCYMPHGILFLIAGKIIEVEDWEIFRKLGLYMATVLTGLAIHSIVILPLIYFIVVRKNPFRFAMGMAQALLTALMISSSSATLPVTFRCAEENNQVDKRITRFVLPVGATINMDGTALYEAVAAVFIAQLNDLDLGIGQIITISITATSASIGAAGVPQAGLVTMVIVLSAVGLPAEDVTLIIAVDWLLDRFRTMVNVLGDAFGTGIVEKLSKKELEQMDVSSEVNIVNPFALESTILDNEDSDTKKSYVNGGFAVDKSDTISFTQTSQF
Text: (§1) The glutamate evoked currents were first measured without addition of inhibitor. […] Calculation of KI values was based on the kinetics for competitive inhibition.
Oocytes were used for two-microelectrode voltage-clamping as described above and command potentials were applied and controlled by an IBM-compatible computer via the software CLAMPEX from pCLAMP (version 5.5 Axon Instruments, CA). The oocyte membrane was held at -50 mV and pulsed to the test potential for […] followed by a 1 sec interpulse interval at the holding potential of -50 mV before application of the next pulse. Current was low-pass filtered at […], digitized at 200 μsec and saver on the computer. Steady-state currents were obtained by averaging the current between 72 and 76 msec.

[2] = biological target: T2, human excitatory amino acid carrier (Homo sapiens, UniProt P43005); assay: voltage dependence of currents mediated by human carrier; format: cell-based
T2 sequence (P43005 1-524): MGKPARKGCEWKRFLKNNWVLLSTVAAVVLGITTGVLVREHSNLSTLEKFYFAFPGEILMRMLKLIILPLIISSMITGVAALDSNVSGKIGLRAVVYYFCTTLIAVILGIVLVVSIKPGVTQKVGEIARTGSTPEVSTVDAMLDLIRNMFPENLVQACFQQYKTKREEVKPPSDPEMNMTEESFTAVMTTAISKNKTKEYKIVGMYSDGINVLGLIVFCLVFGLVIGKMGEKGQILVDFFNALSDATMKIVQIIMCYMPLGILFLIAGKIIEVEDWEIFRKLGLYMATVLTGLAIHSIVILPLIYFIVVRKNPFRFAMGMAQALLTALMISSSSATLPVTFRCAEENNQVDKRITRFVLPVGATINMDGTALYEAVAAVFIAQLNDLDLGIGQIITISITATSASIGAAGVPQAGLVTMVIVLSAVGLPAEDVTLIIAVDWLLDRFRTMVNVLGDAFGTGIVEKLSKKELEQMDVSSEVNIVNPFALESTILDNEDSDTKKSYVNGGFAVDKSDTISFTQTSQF
Text: Oocytes were used for two-microelectrode voltage-clamping as described above and command potentials were applied and controlled by an IBM-compatible computer via the software CLAMPEX from pCLAMP (version 5.5 Axon Instruments, CA). The oocyte membrane was held at -50 mV and pulsed to the test potential for msec followed by a 1 sec interpulse interval at the holding potential of -50 mV before application of the next pulse. Current was low-pass filtered at 50 kHz, digitized at 200 μsec and saver on the computer. Steady-state currents were obtained by averaging the current between 72 and 76 msec.

[3] = biological target: T1, Human High Affinity Glutamate Transporter HEAAC1; assay: inhibition of L-glutamate-evoked currents in oocytes expressing human carrier; format: cell-based; design: expressed in transfected cells; host or cells: Xenopus laevis oocytes (cRNA injection; human kidney clone K-3)
Text: as §1

[4] = biological target: T3, excitatory amino acid carrier protein (EAAC1) derived from rabbit (Oryctolagus cuniculus, UniProt P31597); assay: substrate-evoked currents (two-microelectrode voltage clamp) in oocytes expressing rabbit EAAC1; conditions: 100 μM substrate, -60 mV holding potential, FIG. 7
T3 sequence (P31597 1-524): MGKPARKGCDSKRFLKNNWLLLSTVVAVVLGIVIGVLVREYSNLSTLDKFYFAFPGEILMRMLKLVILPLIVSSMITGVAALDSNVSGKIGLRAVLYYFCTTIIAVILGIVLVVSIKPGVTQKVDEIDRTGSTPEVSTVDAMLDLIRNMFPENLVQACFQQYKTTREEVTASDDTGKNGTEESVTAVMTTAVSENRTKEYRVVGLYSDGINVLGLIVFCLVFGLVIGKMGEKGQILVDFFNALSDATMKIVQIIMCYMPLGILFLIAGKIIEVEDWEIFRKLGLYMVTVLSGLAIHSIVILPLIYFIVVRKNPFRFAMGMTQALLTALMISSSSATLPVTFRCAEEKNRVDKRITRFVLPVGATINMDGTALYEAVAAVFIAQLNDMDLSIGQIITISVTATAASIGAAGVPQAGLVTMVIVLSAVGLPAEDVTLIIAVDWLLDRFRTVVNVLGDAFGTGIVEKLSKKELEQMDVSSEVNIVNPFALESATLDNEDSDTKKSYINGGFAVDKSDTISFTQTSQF
Procedure: Electrophysiological measurements were performed 3-4 days after injection using a conventional two-microelectrode voltage clamp method (Axoclamp-2A, Axon Instruments, CA).
The standard bath solution (ND 96) contained 96 mM NaCl, 2 mM KCl, 1.8 mM CaCl2, 1.0 mM MgCl2 and 5 mM HEPES pH 7.4 The recording chamber was perfused with bath solution.
The membrane current was measured in standard bath solution (ND 96) at -60 mV holding potential. Substrates were applied at the bars.
FIG. 9 graphically depicts the changes in glutamate induced current measured in nanoampere (nA) at concentrations ranging from 1 μM to 1 mM glutamate. The results were fitted to a Michaelis-Menton curve. An Eadie-Hofstee plot is depicted in the inset.
Xenopus laevis oocytes were injected with excitatory amino acid carrier cRNA derived from rabbit (25 ng/oocyte) and used for two microelectrode voltage clamp experiments. Recordings were performed at -60 mV in regular ND 96 saline (96 mM NaCl, 2 mM KCl, 1.8 mM CaCl2, 1.0 mM MgCl2 and 5 mM Hepes pH 7.4).

[5] = biological target: T3, excitatory amino acid carrier protein (EAAC1) derived from rabbit; assay: uptake of 14C-L-glutamate or 14C-L-aspartate by Xenopus oocytes injected with rabbit EAAC1 cRNA; format: cell-based; conditions: carrier protein of Seq. ID No. 4
Procedure: Poly(A)^+ RNA was isolated and injected into collagenase-treated and manually-defolliculated Xenopus laevis oocytes.
All uptakes in this and the following figures were performed with 6-8 oocytes, 3 days after injection. […] For the sodium-free medium, sodium chloride was replaced by Choline-chloride. RNA-injected oocytes were injected with 25 ng cRNA in 50 nl.
The solutions described above were modified to the extent that acetate ion was substituted for chloride ion.

SMILES: N[C@@H](Cn1oc(=O)[nH]c1=O)C(=O)O [Quisgualate, quisgualate]
- amplitude of inward current evoked by substrate [4]: small but significant inward current

SMILES: NC(=O)CC[C@H](N)C(=O)O [Glutamine]
- activity for glutamine transport [5]: slight activity

SMILES: C=C(C)[C@H]1CN[C@H](C(=O)O)[C@H]1CC(=O)O [kainate]
- amplitude of inward current evoked by substrate [4]: did not induce current

Now from value to compound, other results behind:

- substrate of the carrier / effect on transport [1]: transport substrates
- inward currents induced ([1]; AAD at 50 μM, DHK up to 1 mM): large inward currents
- Vmax for the PDC-induced current [2]: markedly reduced
- overall voltage-dependencies of L-glutamate and PDC evoked currents [2]: identical
- Ki ([3]; HEAAC1, based on the kinetics for competitive inhibition): ~1 µM
- IC50 ([3]; IC50, L-Glu = 1 mM, HEAAC1, L-Glu = 1 mM): 91 ± 7.2 µM
- IC50 ([3]; IC50, L-Glu = 100 um, HEAAC1, L-Glu = 100 um): 74 ± 11 µM
- inhibition of the current induced by L-glutamate ([3]; L-glutamate 10-1,000 μM, DHK 1 mM): potent inhibitors
- order of sensitivity to inhibitors based on IC50 values ([3]; current induced by 100 μM L-glutamate): THA>PDC>>AAA>DHK
- preference as uptake inhibitor ([3]; human carrier): preferred uptake inhibitor
SMILES: O=C(O)[C@H]1CN[C@H](C(=O)O)C1 [PDC, L-trans-pyrolidine-2,4-dicarboxylate]
- maximal transport rate (Vmax) of glutamate uptake ([3]; human carrier): reduces the maximal transport rate (Vmax)

- voltage dependence of Km for L-glutamate [2]: strongly depended on membrane voltage
SMILES: N[C@@H](CCC(=O)O)C(=O)O [L-glutamate]
